Patent US20230060425A1, “FUSED BICYCLIC HETEROCYCLE DERIVATIVES AS PESTICIDES” (Bayer Aktiengesellschaft, priority 2019, published 2023)

Experiments:
Format in all cases: in vivo
[1] = test system: Myzus persicae; assay: Myzus persicae oral test; details: 120 h, application rate 4 ppm, after 5 days, read-out: efficacy
Description: Solvent: 100 parts by weight of acetone
To produce a suitable preparation of active compound, 1 part by weight of active compound is dissolved using the specified parts by weight of solvent and made up with water until the desired concentration is attained.
50 μl of the active compound preparation are transferred into microtitre plates and made up to a final volume of 200 μl with 150 μl of IPL41 insect medium (33%+15% sugar). Subsequently, the plates are sealed with parafilm, which a mixed population of green peach aphids (Myzus persicae) within a second microtitre plate is able to puncture and imbibe the solution through it.
(§1) After 5 days, the efficacy in % is determined. 100% means that all the aphids have been killed; 0% means that no aphids have been killed.

[2] = test system: Spodoptera frugiperda; assay: Spodoptera frugiperda spray test; details: foliar, 168 h, application rate 100 g/ha, maize leaf discs, after 7 days, read-out: efficacy
Description: Spodoptera frugiperda—Spray Test
(§2) Solvent: • 78.0 parts by weight of acetone • 1.5 parts by weight of dimethylformamide
(§3) Emulsifier: alkylaryl polyglycol ether
To produce further test concentrations, the formulation is diluted with emulsifier-containing water.
After 7 days, the efficacy in % is determined. 100% means that all the caterpillars have been killed; 0% means that no caterpillar has been killed.

[3] = test system: Diabrotica balteata; assay: Diabrotica balteata spray test; details: 168 h, application rate 160 μg/cavity (μg/well), wheat grains, after 7 days, read-out: efficacy
Description: Diabrotica balteata—Spray Test
(§4) Solvent: • 78 parts by weight of acetone • 1.5 parts by weight of dimethylformamide
as §3
(§5) To produce a suitable active compound preparation, 1 part by weight of active compound is dissolved using the stated parts by weight of solvent and made up with water containing an emulsifier concentration of 1000 ppm until the desired concentration is attained. To produce further test concentrations, the formulation is diluted with emulsifier-containing water.
Pre-swollen wheat grains (Triticum aestivum) are incubated in a multiwell plate filled with agar and a little water for one day (5 seed grains per well). The germinated wheat grains are sprayed with an active compound preparation of the desired concentration. Subsequently, each cavity is infected with 10-20 beetle larvae of Diabrotica balteata.
After 7 days, the efficacy in % is determined. 100% means that all wheat plants have grown as in the untreated, uninfected control; 0% means that no wheat plant has grown.

[4] = test system: Meloidogyne incognita; assay: Meloidogyne incognita test; details: 336 h, application rate 20 ppm, lettuce, after 14 days, formation of galls, read-out: nematicidal efficacy
Description: Meloidouyne incognita Test
Solvent: 125.0 parts by weight of acetone
To produce a suitable active compound formulation, 1 part by weight of active compound is mixed with the stated amount of solvent and the concentrate is diluted to the desired concentration with water.
Vessels are filled with sand, active compound solution, an egg/larvae suspension of the southern root-knot nematode (Meloidogyne incognita) and lettuce seeds. The lettuce seeds germinate and the plants develop. The galls develop on the roots.
After 14 days, the nematicidal efficacy in % is determined by the formation of galls. 100% means that no galls were found; 0% means that the number of galls on the treated plants corresponds to the untreated control.

[5] = test system: Ctenocephalides felis; assay: Ctenocephalides felis oral test; details: 48 h, application rate 100 ppm, in citrated cattle blood, after 2 days, read-out: efficacy (kill in %)
Description: Ctenocephalides felis—Oral Test
Solvent: Dimethyl sulfoxide
To produce a suitable active compound formulation, 10 mg of active compound are mixed with 0.5 ml of dimethyl sulfoxide. Dilution with citrated cattle blood gives the desired concentration.
About 20 unfed adult cat fleas (Ctenocephalides felis) are placed into a chamber which is closed at the top and bottom with gauze. A metal cylinder whose bottom end is closed with parafilm is placed onto the chamber. The cylinder contains the blood/active compound formulation, which can be imbibed by the fleas through the parafilm membrane.
After 2 days, the kill in % is determined. 100% means that all of the fleas have been killed; 0% means that none of the fleas have been killed.

[6] = test system: Ctenocephalides felis; assay: Ctenocephalides felis in vitro contact test with adult cat fleas; details: application rate 5 μg/cm^2 (=500 g/ha); after 48 h; fleas dead or moribund
Description: Ctenocephalides felis—In Vitro Contact Tests with Adult Cat Fleas
For the coating of the test tubes, 9 mg of active compound are first dissolved in 1 ml of acetone p.a. and then diluted to the desired concentration with acetone p.a. 250 μl of the solution are distributed homogeneously on the inner walls and the base of a 25 ml glass tube by turning and rocking on an orbital shaker (rocking rotation at 30 rpm for 2 h). With 900 ppm of active compound solution and internal surface area 44.7 cm^2, given homogeneous distribution, an area-based dose of 5 μg/cm^2 is achieved.
After the solvent has evaporated off, the tubes are populated with 5-10 adult cat fleas (Ctenocephalides felis), sealed with a perforated plastic lid and incubated in a horizontal position at room temperature and ambient humidity. After 48 h, efficacy is determined. To this end, the tubes are stood upright and the fleas are knocked to the base of the tube. Fleas which remain motionless at the base or move in an uncoordinated manner are considered to be dead or moribund.
100% efficacy means that all the fleas were dead or moribund. 0% efficacy means that no fleas were harmed.

[7] = test system: Myzus persicae; assay: Myzus persicae spray test; details: foliar, 120 h, application rate 100 g/ha, Chinese cabbage leaf discs, after 5 days, read-out: efficacy
Description: Myzus persicae—Spray Test
as §4, §3, §5
Discs of Chinese cabbage leaves (Brassica pekinensis) infested by all stages of the green peach aphid (Myzus persicae) are sprayed with an active compound formulation of the desired concentration.
as §1

[8] = test system: Phaedon cochleariae; assay: Phaedon cochleariae spray test; details: foliar, 168 h, application rate 100 g/ha, Chinese cabbage leaf discs, after 7 days, read-out: efficacy
Description: Phaedon cochleariae—Spray Test
as §2, §3, §5
Discs of Chinese cabbage leaves (Brassica pekinensis) are sprayed with an active compound formulation of the desired concentration and, after drying, populated with larvae of the mustard beetle (Phaedon cochleariae).
After 7 days, the efficacy in % is determined. 100% means that all the beetle larvae have been killed; 0% means that no beetle larvae have been killed.

[9] = test system: Myzus persicae; assay: Myzus persicae spray test on bell pepper plants (MYZUPE S); details: 144 h, 6 dat, read-out: % Efficacy
Description: Myzus persicae—Spray Test (MYZUPE S)
(§6) Solvent: 14 parts by weight of dimethylformamide
as §3
as §5, with “water. If the addition of ammonium salts or/and penetrants is required, these are each added in a concentration of 1000 ppm to the formulation solution.” for “water.”
Bell pepper plants (Capsicum annuum) severely infested with the green peach aphid (Myzus persicae) are treated by spraying with the active compound formulation in the desired concentration.
After the desired time, the kill in % is determined. 100% means that all the animals have been killed; 0% means that no animals have been killed.

[10] = test system: Aphis gossypii; assay: Aphis gossypii spray test (APHIGO S); details: 144 h, 6 dat, read-out: % Efficacy
Description: Aphis gossypii—Spray Test (APHIGO S)
as §6, §3
as §5, with “water. If the addition of ammonium salts or/and penetrants is required, these are each added in a concentration of 1000 ppm to the formulation solution.” for “water.”
Cotton plants (Gossypium hirsutum) heavily infested by the cotton aphid (Aphis gossypii) are sprayed with an active compound formulation of the desired concentration.
After the desired time, the kill in % is determined. 100% means that all the aphids have been killed; 0% means that no aphids have been killed.

For CCS(=O)(=O)c1c(-c2nc3cc(C(F)(F)F)cnc3n2C)ncc2c(Br)cccc12 [Example I-004], the pest or weed control at 4 ppm [1] was 100%, the pest or weed control at 100 g/ha [2] was 100% and the pest or weed control at 160 µg/well [3] was 100%. For the same compound, the pest or weed control at 20 ppm [4] was 90%.

Work on CCS(=O)(=O)c1c(-c2nc3cc(C(F)(F)C(F)(F)F)cnc3n2C)ncc2cc(Br)ccc12 [Example I-005] yielded a pest or weed control at 4 ppm [1] of 100%, a pest or weed control at 100 ppm [5] of 100% and a pest or weed control at 100 g/ha [2] of 100%. It also gave a pest or weed control at 160 µg/well [3] of 80%, an efficacy [6] of 100% and a pest or weed control at 20 ppm [4] of 90%.

CCS(=O)(=O)c1c(-c2nc3cc(C(F)(F)C(F)(F)F)cnc3n2C)ncc2c(Br)cccc12 [Example I-006] was tested, and the pest or weed control at 4 ppm [1] was 90%, the pest or weed control at 100 g/ha [2] was 100% and the pest or weed control at 100 g/ha [7] was 100%. The pest or weed control at 160 µg/well [3] was 100% and the pest or weed control at 20 ppm [4] was 90%.

With CCS(=O)(=O)c1c(-c2nc3cc(C(F)(F)F)nnc3n2C)ncc2cc(Cl)ccc12 [Example I-008] the pest or weed control at 4 ppm [1] was 100%, the pest or weed control at 100 ppm [5] was 100% and the pest or weed control at 100 g/ha [2] was 100%. It also gave a pest or weed control at 100 g/ha [8] of 100% and a pest or weed control at 20 ppm [4] of 100%.

In the case of CCS(=O)(=O)c1c(-c2nc3cc(C(F)(F)C(F)(F)F)ncc3n2C)ncc2c(C(F)(F)F)cccc12 [Example I-012], the pest or weed control at 4 ppm [1] is reported as 100%, the pest or weed control at 100 ppm [5] is reported as 100% and the pest or weed control at 100 g/ha [2] is reported as 100%. It also gave a pest or weed control at 100 g/ha [7] of 90%, an efficacy [6] of 90% and a pest or weed control at 100 g/ha [8] of 100%.

With CCS(=O)(=O)c1c(-c2nc3cc(C(F)(F)F)cnc3n2C)ncc2cc(C)ccc12 [Example I-015] the pest or weed control at 4 ppm [1] was 100%, the Emax at 0.8 ppm ([9]; 0.8 ppm) was 25% and the Emax at 4 ppm ([9]; 4 ppm) was 100%. It also gave a pest or weed control at 100 g/ha [2] of 83% and an Emax at 4 ppm [10] of 100%.

For CCS(=O)(=O)c1c(-c2nc3cc(C(F)(F)C(F)(F)F)ncc3n2C)ncc2c(C#N)cccc12 [Example I-020], the pest or weed control at 4 ppm [1] was 100%, the pest or weed control at 100 g/ha [2] was 100% and the pest or weed control at 100 g/ha [7] was 90%. It also gave a pest or weed control at 160 µg/well [3] of 100% and a pest or weed control at 20 ppm [4] of 90%.

For CCS(=O)(=O)c1c(-c2nc3cc(C(F)(F)F)nnc3n2C)ncc2cc(C(F)(F)F)ccc12 [Example I-025], the pest or weed control at 4 ppm [1] was 100%, the pest or weed control at 100 ppm [5] was 100% and the pest or weed control at 100 g/ha [2] was 100%. It also gave a pest or weed control at 100 g/ha [7] of 90%, a pest or weed control at 160 µg/well [3] of 100% and an efficacy [6] of 100%.

CCS(=O)(=O)c1c(-c2nc3cc(C(F)(F)F)cnc3n2C)ncc2c(C#N)cccc12 [Example I-026] was tested, and the pest or weed control at 4 ppm [1] was 90%, the pest or weed control at 100 g/ha [2] was 100% and the pest or weed control at 100 g/ha [7] was 100%. For the same compound, the pest or weed control at 100 g/ha [8] was 100% and the pest or weed control at 20 ppm [4] was 90%.

In the case of CCS(=O)(=O)c1c(-c2nc3cc(C(F)(F)F)nnc3n2C)ncc2c(Br)cccc12 [Example I-027], the pest or weed control at 4 ppm [1] is reported as 100%, the pest or weed control at 100 g/ha [2] is reported as 100% and the pest or weed control at 100 g/ha [7] is reported as 70%. The pest or weed control at 160 µg/well [3] was 100% and the pest or weed control at 20 ppm [4] was 100%.

Compound CCS(=O)(=O)c1c(-c2nc3cc(C(F)(F)F)nnc3n2C)ncc2cc(C(F)F)ccc12 [Example I-041] has a pest or weed control at 4 ppm [1] of 100%, a pest or weed control at 100 g/ha [2] of 100% and a pest or weed control at 100 g/ha [7] of 90%. For the same compound, the pest or weed control at 160 µg/well [3] was 100% and the pest or weed control at 20 ppm [4] was 100%.

CCS(=O)(=O)c1c(-c2nc3cc(C(F)(F)F)nnc3n2C)ncc2ccc(C(F)F)cc12 [Example I-042] gave a pest or weed control at 4 ppm [1] of 100%, a pest or weed control at 100 g/ha [2] of 83% and a pest or weed control at 100 g/ha [7] of 100%. It also gave a pest or weed control at 160 µg/well [3] of 100% and a pest or weed control at 20 ppm [4] of 90%.
